Among the data in patent publication US10138255B2, “Piperazine derivatives as HIV protease inhibitors” (Merck Sharp & Dohme Corp., priority 2014, dated 2018) are EC50 values, retold here.

Each structure is given as a SMILES string.

For the assay, the system named is HIV-1 (H9IIIB strain). The assay can be described thus: Cell-Based HIV Infection Assay Using a Reporter (MT4-GFP cells). Conditions: Human immunodeficiency virus 1, inflection point (IP) of viral growth inhibition; MT4-GFP cells infected with HIV-1 H9IIIB; 50% normal human serum; mean of at least two independent experiments; read-out: Cell Based IP (50% NHS). Put shortly:
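Inflection point from a 4-parameter curve of % viral growth inhibition, normalised to DMSO and triple-drug controls, using the 48 h/24 h ratio of GFP-positive cells (R0). MT4-GFP cells pre-infected 24 h with HIV-1 H9IIIB at low MOI; compounds tested in 50% normal human serum, 0.4% DMSO; mean of ≥2 experiments.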
Consider `CO[C@H](C(C)C)[C@H](c1ccc(F)cc1)[C@H](N)C(=O)Nc1cccc(F)c1CCC1CN[C@@H]2CCCS(=O)(=O)N1C2` (stereo partly drawn) [Example 88, (βR)-N-(2-{2-[(6R)-2,2-dioxido-2-thia-1,7-diazabicyclo[4.3.1]dec-9-yl]ethyl)-3-fluorophenyl)-4-fluoro-β-[(1R)-1-methoxy-2-methylpropyl]-L-phenylalaninamide], for which the EC50 is 91 nM.
Take `N[C@H](C(=O)Nc1cccc(F)c1CCC1CNC2CCCS(=O)(=O)N1C2)[C@@H](c1ccc(Cl)cc1)c1ccc(C(F)(F)F)nc1` (stereo partly drawn) [Example 89, (βS)-4-chloro-N-{2-[2-(2,2-dioxido-2-thia-1,7-diazabicyclo[4.3.1]dec-9-yl)ethyl]-3-fluorophenyl}-β-[6-(trifluoromethyl)pyridin-3-yl]-L-phenylalaninamide]: the EC50 was 5.1 nM.
For the compound `COC(=O)N[C@H](C(=O)Nc1cccc(F)c1CCC1CN[C@@H]2CCCS(=O)(=O)N1C2)[C@H](CC(C)C)c1ccc(F)cc1` (stereo partly drawn) [Example 90, methyl [(1S,2R)-1-[(2-{2-[(6R)-2,2-dioxido-2-thia-1,7-diazabicyclo[4.3.1]dec-9-yl]ethyl}-3-fluorophenyl)carbamoyl]-2-(4-fluorophenyl)-4-methylpcnlyl]carbamate], the EC50 stood at 23 nM.
Turning to `N[C@H](C(=O)Nc1c(F)ccc(F)c1CC[C@H]1CN[C@@H]2CCCS(=O)(=O)N1C2)[C@@H](c1ccc(Cl)cc1)C1CCOCC1` [Example 91, (βR)-4-chloro-N-(2-{2-[(6R,9S)-2,2-dioxido-2-thia-1,7-diazabicyclo[4.3.1]dec-9-yl]ethyl}-3,6-difluorophenyl)-β-(tetrahydro-2H-pyran-4-yl)-L-phenylalaninamide], the EC50 is 22 nM.
With `COC(=O)N[C@H](C(=O)N[C@H]1CCCC[C@@H]1CC[C@H]1CN[C@@H]2CCCS(=O)(=O)N1C2)C(c1ccc(F)cc1)c1ccc(F)cc1` [Example 92, methyl [(1S)-1-[bis(4-fluorophenyl)methyl]-2-{[(1S,2R)-2-{2-[(6R,9S)-2,2-dioxido-2-thia-1,7-diazabicyclo[4.3.1]dec-9-yl]ethyl}cyclohexyl]amino}-2-oxoethyl]carbamate] the figure was 56 nM.
With `N[C@H](C(=O)N[C@H]1CCCC[C@@H]1CC[C@H]1CN[C@@H]2CCCS(=O)(=O)N1C2)C(c1ccc(F)cc1)c1ccc(F)cc1` [Example 93, N-[(1S,2R)-2-{2-[(6R,9S)-2,2-dioxido-2-thia-1,7-diazabicyclo[4.3.1]dec-9-yl]ethyl)cyclohexyl]-4-fluoro-β-(4-fluorophenyl)-L-phenylalaninamide] the figure was 56 nM; with `CC(C)n1cc([C@H](c2ccc(Cl)cc2)[C@H](N)C(=O)Nc2cccc(F)c2CCC2CNC3CCCS(=O)(=O)N2C3)ccc1=O` (stereo partly drawn) [Example 95, (βS)-4-chloro-N-{2-[2-(2,2-dioxido-2-thia-1,7-diazabicyclo[4.3.1]dec-9-yl)ethyl]-3-fluorophenyl}-β-[1-(1-methylethyl)-6-oxo-1,6-dihydropyridin-3-yl]-L-phenylalaninamide], 63 nM.
With `COC(=O)N[C@H](C(=O)N[C@H]1CCCC[C@@H]1CC[C@H]1CN[C@@H]2CCCS(=O)(=O)N1C2)[C@@H](c1ccc(Cl)cc1)C(C)C` [Example 96, methyl [(1S,2S)-2-(4-chlorophenyl)-1-{[(1S,2R)-2-{2-[(6R,9S)-2,2-dioxido-2-thia-1,7-diazabicycIo[4.3.1]dec-9-yl]ethyl}cyclohexyl]carbamoyl}-3-methylbutyl]carbamate] the figure was 180 nM; with `COC(=O)N[C@H](C(=O)N[C@H]1CCCC[C@@H]1CC[C@H]1CN[C@@H]2CCCS(=O)(=O)N1C2)[C@H](c1cncc(C(F)(F)F)c1)c1ccc(Cl)c(F)c1` [Example 97, methyl {(1S,2S)-2-(4-chloro-3-fluorophenyl)-1-{[(1S,2R)-2-{2-[(6R,9S)-2,2-dioxido-2-thia-1,7-diazabicyclo[4.3.1]dec-9-yl]ethyl}cyclohexyl]carbamoyl}-2-[5-(trifluoromethyl)pyridin-3-yl]ethyl}carbamate], 19 nM; with `COC(=O)N[C@H](C(=O)N[C@H]1CCCC[C@@H]1CC[C@H]1CN[C@@H]2CCCS(=O)(=O)N1C2)[C@@H](c1ccc(Cl)cc1)c1ccc(OC)nc1` [Example 98, methyl [(1S,2S)-2-(4-chlorophenyl)-1-{[(1S,2R)-2-{2-[(6R,9S)-2,2-dioxido-2-thia-1,7-diazabicyclo[4.3.1]dec-9-yl]ethyl}cyclohexyl]carbamoyl}-2-(6-methoxypyridin-3-yl)ethyl]carbamate], 47 nM.
As to `COC(=O)N[C@H](C(=O)N[C@H]1CCCC[C@@H]1CC[C@H]1CN[C@@H]2CCCS(=O)(=O)N1C2)[C@H](c1cncc(F)c1)c1ccc(Cl)c(F)c1` [Example 99, methyl [(1S,2S)-2-(4-chloro-3-fluorophenyl)-1-{[(1S,2R)-2-{2-[(6R,9S)-2,2-dioxido-2-thia-1,7-diazabicyclo[4.3.1]dec-9-yl]ethyl}cyclohexyl]carbamoyl}-2-(5-fluoropyridin-3-yl)ethyl]carbamate], the EC50 was 55 nM.
As to `COC(=O)N[C@H](C(=O)N[C@H]1CCCC[C@@H]1CC[C@H]1CN[C@@H]2CCCS(=O)(=O)N1C2)[C@@H](c1ccc(Cl)cc1)c1cc(F)cc(F)c1` [Example 100, methyl [(1S,2S)-2-(4-chlorophenyl)-2-(3,5-difluorophenyl)-1-{[(1S,2R)-2-{2-[(6R,9S)-2,2-dioxido-2-thia-1,7-diazabicyclo[4.3.1]dec-9-yl]ethyl}cyclohexyl]carbamoyl}ethyl]carbamate], the EC50 was found to be 24 nM.
As to `COC(=O)N[C@H](C(=O)Nc1cccc(F)c1CCC1CNC2CCCS(=O)(=O)N1C2)[C@@H](c1ccc(Cl)cc1)c1ccc(=O)n(C(C)C)c1` (stereo partly drawn) [Example 101, methyl {(1S,2S)-2-(4-chlorophenyl)-1-({2-[2-(2,2-dioxido-2-thia-1,7-diazabicyclo[4.3.1]dec-9-yl)ethyl]-3-fluorophenyl}carbamoyl)-2-[1-(1-methylethyl)-6-oxo-1,6-dihydropyridin-3-yl]ethyl}carbamate], the EC50 stood at 59 nM.
With `COC(=O)N[C@H](C(=O)Nc1cccc(F)c1CC[C@H]1CN[C@@H]2CCC(C)(C)S(=O)(=O)N1C2)[C@@H](c1ccc(F)cc1)[C@H]1C[C@@H](C)O[C@@H](C)C1` [Example 102, methyl {(1S)-2-[(2-{2-[(6R,9S)-3,3-dimethyl-2,2-dioxido-2-thia-1,7-diazabicyclo[4.3.1]dec-9-yl]ethyl}-3-fluorophenyl)amino]-1-[(R)-[(2R,4r,6S)-2,6-dimethyltetrahydro-2H-pyran-4-yl](4-fluorophenyl)methyl]-2-oxoethyl}carbamate] the figure was 32 nM.
For the compound `COC(=O)N[C@H](C(=O)Nc1cccc(F)c1CC[C@H]1CN[C@@H]2CCCS(=O)(=O)N1C2)[C@@H](c1ccc(F)cc1)[C@H]1C[C@@H](OC)C1` [Example 105, methyl [(1S)-2-[(2-{2-[(6R,9S)-2,2-dioxido-2-thia-1,7-diazabicyclo[4.3.1]dec-9-yl]ethyl}-3-fluorophenyl)amino]-1-{(R)-(4-fluorophenyl)[(1s,3S)-3-methoxycyclobutyl]methyl}-2-oxoethyl]carbamate], the EC50 was 33 nM.
For the compound `CO[C@H]1C[C@@H]([C@H](c2ccc(F)cc2)[C@H](N)C(=O)Nc2cccc(F)c2CC[C@H]2CN[C@@H]3CCCS(=O)(=O)N2C3)C1` [Example 106, (βR)-N-(2-{2-[(6R,9S)-2,2-dioxido-2-thia-1,7-diazabicyclo[4.3.1]dec-9-yl]ethyl}-3-fluorophenyl)-4-fluoro-β-[(1s,3S)-3-methoxycyclobutyl]-L-phenylalaninamide], the EC50 is 110 nM.
Regarding `C[C@@H]1CC([C@H](c2ccc(F)cc2)[C@H](N)C(=O)N[C@H]2CCC[C@@H]2CC[C@H]2CN[C@@H]3CCCS(=O)(=O)N2C3)C[C@H](C)O1` (stereo partly drawn) [Example 107, (βR)-β-[(2R,4s,6S)-2,6-dimethyltetrahydro-2H-pyran-4-yl]-N-[(1S,2R)-2-{2-[(6R,9S)-2,2-dioxido-2-thia-1,7-diazabicyclo[4.3.1]dec-9-yl]ethyl}cyclopentyl]-4-fluoro-L-phenylalaninamide], the EC50 is 84 nM.
In the case of `COC(=O)N[C@H](C(=O)N[C@H]1CCC[C@@H]1CC[C@H]1CN[C@@H]2CCCS(=O)(=O)N1C2)[C@@H](c1ccc(F)cc1)C1C[C@@H](C)O[C@@H](C)C1` (stereo partly drawn) [Example 108, methyl [(1S,2R)-2-[(2R,4s,6S)-2,6-dimethyltetrahydro-2H-pyran-4-yl]-1-{[(1S,2R)-2-{2-[(6R,9S)-2,2-dioxido-2-thia-1,7-diazabicyclo[4.3.1]dec-9-yl]ethyl}cyclopentyl]carbamoyl}-2-(4-fluorophenyl)ethyl]carbamate] it was 50 nM; in that of `COC(=O)N[C@H](C(=O)Nc1cccc(F)c1CC[C@H]1CN[C@@H]2CCC(C)S(=O)(=O)N1C2)[C@@H](c1ccc(F)cc1)C1C[C@@H](C)O[C@@H](C)C1` (stereo partly drawn) [Example 109, methyl [(1S,2R)-2-[(2R,6S)-2,6-dimethyltetrahydro-2H-pyran-4-yl]-1-[(3-fluoro-2-{2-[(6R,9S)-3-methyl-2,2-dioxido-2-thia-1,7-diazabicyclo[4.3.1]dec-9-yl]ethyl}phenyl)carbamoyl]-2-(4-fluorophenyl)ethyl]carbamate], 38 nM.
`CC1CC[C@@H]2CN([C@@H](CCc3c(F)cccc3NC(=O)[C@@H](N)[C@@H](c3ccc(F)cc3)C3C[C@@H](C)O[C@@H](C)C3)CN2)S1(=O)=O` (stereo partly drawn) [Example 110, (βR)-β-[(2R,6S)-2,6-dimethyltetrahydro-2H-pyran-4-yl]-4-fluoro-N-(3-fluoro-2-{2-[(6R,9S)-3-methyl-2,2-dioxido-2-thia-1,7-diazabicyclo[4.3.1]dec-9-yl]ethyl}phenyl)-L-phenylalaninamide]: the EC50 stood at 55 nM.
